Assay results as given in patent EP4711377A1, “STEROID COMPOUND, PREPARATION METHOD THEREFOR, AND USE THEREOF” (Shujing Biopharma Co., Ltd, priority 2023, dated 2024).

Key:
[1] = tested on: mice with PTZ-induced convulsions; assay: in vivo efficacy experiment in PTZ-induced epilepsy mouse model; parameters: species or system C57 mice; settings: for Survival rate: 60 min before PTZ 120 mg/kg s.c., 30 min observation; for Number of clonic seizures / Number of tonic seizures / Clonic seizure latency period / Tonic seizure latency period: Mean ± SEM; for Clonic seizure latency period / Tonic seizure latency period: no seizure in 30 min recorded as 1800 s; for protective effects against acute epileptic seizures: conclusion in words
Protocol: Male C57 mice, purchased from SPF (Suzhou) Biotechnology Co., Ltd.
PTZ: a 120 mg/kg PTZ solution (administration volume: 10 mL/kg) was prepared with normal saline as the solvent.
Test compounds: solutions of the test compounds at 3/1/0.3 mg/kg (administration volume: 10 mL/kg) were prepared with Vehicle in section 1.4 as the solvent.
One hour before the test, the experimental animals were transferred into an operation room for acclimation.
The mice were randomly grouped, marked, and weighed, with 10 mice in each group. At 60 min before PTZ administration, the test compounds and Vehicle were separately orally administered.
The PTZ solution was administered subcutaneously before experimental observation, and this time point was recorded as the observation starting point.
Immediately after PTZ administration, the animals were placed in observation boxes and observed for 30 min. The following observations of the animals were recorded:
Clonic seizure: the animal has a generalized myoclonus that lasts for more than 3 s and is accompanied by falling.
Tonic seizure: the limbs are straightened at a 90° angle to the torso.
All metrology data were expressed as mean ± standard error of mean (Mean ± SEM), and the Prism 8.0 statistical software was used for data testing and analysis.

GABAa receptor (α1β2γ2) = GABAa receptor (α1β2γ2) (Homo sapiens, UniProt P14867+P47870); assay: in vitro GABAa receptor (α1β2γ2) cellular activity assay, manual whole-cell patch clamp, enhancement of currents induced by 1 µM GABA; type: cell-based; settings: CHO cells; for activation at 0.1 µM: read-out: Agonist ratio
Chain of GABAa receptor (α1β2γ2) (P14867 28-456): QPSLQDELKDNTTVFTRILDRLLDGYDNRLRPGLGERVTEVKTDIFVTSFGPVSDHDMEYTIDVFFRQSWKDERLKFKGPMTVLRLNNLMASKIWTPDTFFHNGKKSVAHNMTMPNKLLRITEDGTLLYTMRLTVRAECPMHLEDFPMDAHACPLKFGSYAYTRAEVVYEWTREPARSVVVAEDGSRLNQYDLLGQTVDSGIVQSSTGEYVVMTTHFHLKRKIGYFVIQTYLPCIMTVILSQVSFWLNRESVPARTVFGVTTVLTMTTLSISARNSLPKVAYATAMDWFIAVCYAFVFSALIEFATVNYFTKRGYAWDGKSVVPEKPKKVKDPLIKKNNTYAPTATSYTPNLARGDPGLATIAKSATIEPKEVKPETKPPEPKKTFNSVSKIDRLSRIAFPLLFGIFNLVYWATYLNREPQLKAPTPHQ
Chain of GABAa receptor (α1β2γ2) (P47870 25-512 limits assumed): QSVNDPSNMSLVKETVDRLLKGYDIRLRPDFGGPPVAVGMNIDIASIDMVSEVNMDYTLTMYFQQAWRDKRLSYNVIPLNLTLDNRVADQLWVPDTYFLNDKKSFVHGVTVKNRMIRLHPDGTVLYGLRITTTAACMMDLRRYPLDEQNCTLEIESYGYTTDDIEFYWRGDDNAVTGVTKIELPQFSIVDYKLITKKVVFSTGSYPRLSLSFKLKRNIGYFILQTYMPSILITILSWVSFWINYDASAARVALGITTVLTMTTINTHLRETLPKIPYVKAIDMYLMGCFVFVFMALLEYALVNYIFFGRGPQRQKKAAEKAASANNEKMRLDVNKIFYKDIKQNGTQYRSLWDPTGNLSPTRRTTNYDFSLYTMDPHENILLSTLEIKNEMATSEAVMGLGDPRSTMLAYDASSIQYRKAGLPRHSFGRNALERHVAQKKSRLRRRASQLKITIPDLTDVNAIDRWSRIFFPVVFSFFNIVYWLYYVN
Chain of GABAa receptor (α1β2γ2) (P18507 40-475 partner): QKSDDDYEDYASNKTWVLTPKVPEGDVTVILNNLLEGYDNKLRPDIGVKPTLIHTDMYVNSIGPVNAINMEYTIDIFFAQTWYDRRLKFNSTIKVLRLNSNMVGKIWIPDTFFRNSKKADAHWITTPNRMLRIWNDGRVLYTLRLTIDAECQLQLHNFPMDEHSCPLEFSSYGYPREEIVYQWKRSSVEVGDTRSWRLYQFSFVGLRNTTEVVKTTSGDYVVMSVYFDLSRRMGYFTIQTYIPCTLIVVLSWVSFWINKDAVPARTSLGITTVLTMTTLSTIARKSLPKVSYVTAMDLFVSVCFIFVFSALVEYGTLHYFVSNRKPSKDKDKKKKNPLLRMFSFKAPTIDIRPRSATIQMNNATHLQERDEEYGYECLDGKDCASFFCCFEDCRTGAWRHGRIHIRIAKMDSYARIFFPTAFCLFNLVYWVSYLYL
Protocol: The cells used in this experiment were derived from a CHO cell line that stably expressed normal GABAa receptor functions after transfection with human GABAa receptor α1, β2, and γ2 subunit cDNAs. The cell line was constructed by B'sys GmbH. The cells were cultured in a medium (purchased from Invitrogen) containing the following components: DMEM culture medium; 10% (v/v) inactivated fetal bovine serum; 5 µg/mL Puromycin; 250 µg/mL Hygromycin B; and 100 µg/mL Zeocin. The cells were grown in culture dishes containing the above medium and cultured in an incubator at 37 °C with 5% CO2. 12 h to 24 h before the electrophysiological experiment, the cells were transferred onto circular glass slides placed in culture dishes, and were grown under the same medium and culture conditions as above. The density of cells on each circular glass slide was required to meet the requirement that the overwhelming majority of cells were independent and individual.
In this experiment, a manual patch-clamp system HEKA EPC10 USB signal amplifier and digital conversion system (purchased from HEKA Electronics, Germany) were used for whole-cell current recording. The circular glass slides with surface-grown CHO GABAa cells (see the cell culture and requirement section above) were taken out from the culture dishes and then placed into an electrophysiological recording chamber under an inverted microscope. The recording chamber was continuously perfused with extracellular fluid (approximately 1-2 mL/min). In the experiment, the whole-cell current recording technique was employed to record chloride ion currents of GABAa channels. 1 µM GABA was used to activate chloride ion currents of GABAa channels on each cell as an initial control (the reason for using 1 µM GABA concentration was that: this concentration was an effective activation concentration for the GABAa ion channel agonist GABA on the cells used in this experiment, falling between 10% and 20%). Unless otherwise specified, the experiment was performed at conventional room temperature (about 25 °C), and only cells meeting the electrophysiological recording criteria were adopted. In the experiment, the cells were ruptured and sealed, and were clamped at -80 mV after entering a whole-cell state. 1 µM GABA acted on the cells through the drug perfusion system to induce chloride ion currents of GABAa channels; the action time was about 4 s, and the current magnitude was used as the initial control value. Subsequently, the cells were perfused and incubated with the test concentration compound for 3 min, and then a mixed solution of 1 µM GABA and the corresponding test concentration compound was applied to act on the cells to induce currents, so as to observe the enhancing effect of the test compound on the currents induced by 1 µM GABA. When the cell state stabilized, the test compound would be applied from low to high concentrations to act on the same cell. In the experiment, to avoid current reduction caused by desensitization of GABAa ion channels, the interval time for the test substance acting on the cells through the drug perfusion system was at least 180 s.
The experimental data were analyzed using data analysis software provided by HEKA Patchmaster, Microsoft Excel, and Graphpad Prism.

[2] = in vivo pharmacokinetic experiment in mice; parameters: species or system ICR mice; settings: mouse, oral intragastric administration 10 mg/kg, single, plasma
Protocol: Male ICR mice were subjected to oral intragastric administration. The plasma concentrations of the compounds of the present disclosure in the mice were measured, the PK parameters were calculated, and pharmacokinetic evaluation was performed on the compounds of the present disclosure.
Drug preparation: according to the weight of the weighed drug, the preparation volume was calculated; 5% of DMSO and 5% of HS-15 were added sequentially; after the drug was fully dissolved, 90% of a 20% aqueous β-cyclodextrin solution was added, and the mixture was well mixed for later use.
Route of administration: oral intragastric administration, at a dose of 10 mg/kg.
Administration frequency and duration: single administration.
ICR mice were stratified according to body weight and then randomly grouped, with 9 mice per group. The mice were fasted overnight prior to the experiment. The mice were subjected to oral intragastric administration. At 0 h, 0.167 h, 0.333 h, 0.5 h, 1 h, 2 h, 4 h, 6 h, 8 h, 12 h, and 24 h, 50 µL of blood was collected from the fundus vein of each mouse into a sample tube containing heparin sodium as an anticoagulant, and then the tube was placed in wet ice and centrifuged at 4000 r·min^-1 for 10 min. The plasma was separated, and cryopreserved in a refrigerator at -80 °C for testing.
The concentrations of the plasma samples were measured by high-performance liquid chromatography-tandem mass spectrometry (LC-MS/MS). The retention times of the compounds and internal standard, chromatographic acquisitions, and integrals of chromatograms were processed using the software Analyst (AB SCIEX), and statistical analysis of the data was performed using the software Microsoft office. The plasma concentrations were processed using a non-compartmental model of the pharmacokinetic software WinNonlin™ Version 6.3 (Pharsight, Mountain View, CA), and the pharmacokinetic parameters were calculated using a linear log-trapezoidal method. Table 4. Results of pharmacokinetic experiment in mice

[3] = single concentration 0.1 µM, relative enhancement amplitude of GABAa receptor currents induced by 1 µM GABA

1-((2S,3S,5R,8R,9R,108,13S,14S,15R,17S)-3-Hydroxy-2,3,13,15-tetramethylhexadecahydro-1H-cyclopenta[a]phenanthren-17-yl)-2-(1H-1,2,3-triazol-1-yl)ethan-1-one [Example 8]
Survival rate ([1]; dose 3 mg/kg p.o.): 100%

C[C@@H]1C[C@H](C(=O)Cn2cc(C#N)cn2)[C@@]2(C)CC[C@H]3[C@@H](CC[C@@H]4C[C@](C)(O)[C@@H](C)C[C@@H]43)[C@H]12 [Example 2, 1-(2-((2S,3S,5R,8R,9R,10S,13S,14S,15R,17S)-3-Hydroxy-2,3,13,15-tetramethylhexadecahydro-1H-cyclopenta[a]phenanthren-17-yl)-2-oxoethyl)-1H-pyrazole-4-carbonitrile]
EC50 (GABAa receptor (α1β2γ2); positive modulator enhancing GABAa receptor currents induced by 1 µM GABA, read-out: EC50): 22 nM | AUC(0-t) [2]: 16600 ng·h/mL | Cmax [2]: 1240 ng/mL | Tmax [2]: 4 h | half-life [2]: 7.38 h

C[C@@H]1C[C@H](C(=O)Cn2ccc(C(F)(F)F)n2)[C@@]2(C)CC[C@H]3[C@@H](CC[C@@H]4C[C@](C)(O)[C@@H](C)C[C@@H]43)[C@H]12 [Example 4, 1-((2S,3S,5R,8R,9R,10S,13S,14S,15R,17S)-3-Hydroxy-2,3,13,15-tetramethylhexadecahydro-1H. cyclopenta[a]phenanthren-17-yl)-2-(3-(trifluoromethyl)-1H-pyrazol-1-yl)ethan-1-one]
Agonist ratio (GABAa receptor (α1β2γ2); [3]): 626%

C[C@@H]1C[C@H](C(=O)Cn2nc(C#N)cc2C#N)[C@@]2(C)CC[C@H]3[C@@H](CC[C@@H]4C[C@](C)(O)[C@@H](C)C[C@@H]43)[C@H]12 [Example 5, 1-(2-((2S,3S,5R,8R,9R,10S,13S,14S,15R,17S)-3-Hydroxy-2,3,13,15-tetramethylhexadecahydro-1H-cyclopenta[a]phenanthren-17-yl)-2-oxoethyl)-1H-pyrazole-3,5-dicarbonitrile]
Survival rate ([1]; dose 0.3 mg/kg p.o.): 10% | Survival rate ([1]; dose 1 mg/kg p.o.): 90% | Survival rate ([1]; dose 3 mg/kg p.o.): 100% | Number of clonic seizures ([1]; dose 3 mg/kg p.o.): 0.6±0.2 | Number of tonic seizures ([1]; dose 3 mg/kg p.o.): 0.0±0.0 | Clonic seizure latency period ([1]; dose 3 mg/kg p.o.): 1133.7 ± 192.7 s | Tonic seizure latency period ([1]; dose 3 mg/kg p.o.): 1800.0 ± 0.0 s | protective effects against acute epileptic seizures ([1]; extremely low dose (0.3 mpk)): partial protective effects | protective effects against acute epileptic seizures ([1]; low dose (1 mpk)): significant protective effects

C[C@@H]1C[C@H](C(=O)Cn2cncn2)[C@@]2(C)CC[C@H]3[C@@H](CC[C@@H]4C[C@](C)(O)[C@@H](C)C[C@@H]43)[C@H]12 [Example 6, 1-((2S,3S,5R,8R,9R,10S,13S,14S,15R,17S)-3-Hydroxy-2,3,13,15-tetramethylhexadecahydro-1H-cyclopenta[a]phenanthren-17-yl)-2-(1H-1,2,4-triazol-1-yl)ethan-1-one]
activation at 0.1 µM (GABAa receptor (α1β2γ2); [3]): 380% | Survival rate ([1]; dose 1 mg/kg p.o.): 90% | Survival rate ([1]; dose 3 mg/kg p.o.): 100% | Number of clonic seizures ([1]; dose 3 mg/kg p.o.): 0.8±0.2 | Number of tonic seizures ([1]; dose 3 mg/kg p.o.): 0.0±0.0 | Clonic seizure latency period ([1]; dose 3 mg/kg p.o.): 1132.4 ± 195.9 s | Tonic seizure latency period ([1]; dose 3 mg/kg p.o.): 1800.0 ± 0.0 s | protective effects against acute epileptic seizures ([1]; low dose (1 mpk)): significant protective effects

C[C@@H]1C[C@H](C(=O)Cn2nccn2)[C@@]2(C)CC[C@H]3[C@@H](CC[C@@H]4C[C@](C)(O)[C@@H](C)C[C@@H]43)[C@H]12 [Example 7, 1-((2S,3S,5R,8R,9R,10S,13S,14S,15R,17S)-3-Hydroxy-2,3,13,15-tetramethylhexadecahydro-1H-cyclopenta[a]phenanthren-17-yl)-2-(2H-1,2,3-triazol-2-yl)ethan-1-one]
activation at 0.1 µM (GABAa receptor (α1β2γ2); [3]): 794% | Survival rate ([1]; dose 3 mg/kg p.o.): 100%

C[C@@H]1C[C@H](C(=O)Cn2cnnn2)[C@@]2(C)CC[C@H]3[C@@H](CC[C@@H]4C[C@](C)(O)[C@@H](C)C[C@@H]43)[C@H]12 [Example 10, 1-((2S,3S,5R,8R,9R,10S,13S,14S,15R,17S)-3-Hydroxy-2,3,13,15-tetramethylhexadecahydro-1H-cyclopenta[a]phenanthren-17-yl)-2-(1H-tetrazol-1-yl)ethan-1-one]
Survival rate ([1]; dose 3 mg/kg p.o.): 100%

C[C@@H]1C[C@H](C(=O)Cn2ncnn2)[C@@]2(C)CC[C@H]3[C@@H](CC[C@@H]4C[C@H](O)[C@@H](C)C[C@@H]43)[C@H]12 [Example 17, 1-((2S,3S,5R,8R,9R,10S,13S,14S,15R,17S)-3-Hydroxy-2,13,15-trimethylhexadecahydro-1H-cyclopenta[a]phenanthren-17-yl)-2-(2H-tetrazol-2-yl)ethan-1-one]
activation at 0.1 µM (GABAa receptor (α1β2γ2); [3]): 217%

C[C@H]1C[C@H]2[C@H](CC[C@@H]3[C@@H]2CC[C@]2(C)[C@@H](C(=O)Cn4cc(C#N)cn4)CC[C@@H]32)C[C@]1(C)O [Example 19, 1-(2-((2S,3S,5R,8R,9R,10S,13S,14S,17S)-3-Hydroxy-2,3,13-trimethylhexadecahydro-1H-cyclopenta[a]phenanthren-17-yl)-2-oxoethyl)-1H-pyrazole-4-carbonitrile]
AUC(0-t) ([2]; male, ICR): 26700 ng·h/mL | Cmax ([2]; male, ICR): 1650 ng/mL | Tmax ([2]; male, ICR): 8 h | half-life ([2]; male, ICR): > 8 h
